{"source": "patent US9034846B2", "about": "“Use of cyclodextrin for treatment and prevention of bronchial inflammatory diseases” (UNIVERSITE DE LIEGE, priority 2004, dated 2015)", "key": {"[1]": {"system": "LPS-induced peribronchial inflammation", "test": "Peribronchial inflammation score, LPS-induced inflammation model", "assay_type": "in vivo, mouse", "settings": "aerosolized 15 mM, vs placebo, FIG. 14", "procedure": "In lipopolysaccharide (LPS)-induced inflammation model, mice were exposed to 3 μg LPS diluted in 100 μl of PBS or PBS (phosphate buffer saline) only administered by direct tracheal instillations at day 1 and 5 of the protocol. Mice were daily exposed either to aerosolized hydroxypropyl-beta-cyclodextrin (15 mM) or PBS for 30 min from day 0 to 5 (6 hours after LPS or sham exposure at days 1 and 5). Mice were sacrificed at day 6.\n(§1) After sacrifice, thorax was opened and the right lungs were excised and snap frozen in liquid nitrogen for protein extraction. The left lung was insufflated at constant pressure with 4% paraformaldehyde and embedded in paraffin for further histological analysis. A peribronchial inflammation score was applied on each hematoxylin-eosin stained slide as previously reported (Cataldo et al Am J Pathol 2002). A value from 0 to 2 was adjudged to each bronchus. Score of 0 corresponded to bronchi without inflammation; score 1 to occasional mononuclear cells observed around bronchi, and score 2 to 1 to 5 layer(s) of inflammatory cells around bronchi. Six bronchi per mice were counted and statistical analysis was performed by using GraphPad Program. […] ELISA for CXCL-1 on lung protein extracts were assessed using antibodies from R&D Systems and the R&D Duoset® Elisa Development kit (R&D Systems, Minneapolis, Minn., USA)."}, "[2]": {"system": "Eotaxin", "test": "Eotaxin ELISA in lung protein extracts, OVA mouse model", "assay_type": "in vivo", "settings": "all doses tested, compared to placebo; FIG. 7a", "procedure": "(§2) In order to study modulation of airway inflammation, males BALB/c mice of 6 to 8 weeks old were sensitized by intraperitoneal injection of 10 μg ovalbumin (OVA) (Sigma Aldrich, Schnelldorf, Germany) emulsified in aluminum hydroxyde (AlumInject; Perbio, Erembodegem, Belgium) on days 1 and 8. Mice were subsequently exposed to allergens by daily inhalation of an aerosol of OVA 1%, for 30 minutes, generated by ultrasonic nebulizer (Devilbiss 2000), from day 21 to 27. Mice were subjected to inhalation of β-CD, HP-β-CD HP 1, 7.5, 50 mM and HP-β-CD 50 mM 30 minutes before OVA inhalation. Mice were sacrificed performed on day 28 as previously reported by Cataldo and al in Am. J. Pathol 2002; 161(2):491-498.\nThe left lung was crushed using a Mikro-Dismembrator (Braun Biotech International, Gmbh Melsungen, Germany). For proteins extraction, the crushed lung tissue was incubated overnight at 4° C. in a solution containing 2M urea, 1M NaCl and 50 mM Tris (pH 7.5) and subsequently centrifuged 15 minutes at 16.000×g. […]\n(§3) Eotaxin and IL-13 levels were assessed using commercial ELISAs (R&D systems, Abingdon, UK). Eotaxin was measured by incubation in a wheel coated with a primary antibody specifically dedicated to the recognition of the protein and after rinsing, a second antibody against eotaxin, coupled with horse radish peroxydase was used to quantify the amounts of eotaxin in the solution"}, "[3]": {"system": "IL-13", "test": "IL-13 ELISA in BAL and lung protein extracts, OVA mouse model", "assay_type": "in vivo", "procedure": "as §2\nThe left lung was crushed using a Mikro-Dismembrator (Braun Biotech International, Gmbh Melsungen, Germany). For proteins extraction, the crushed lung tissue was incubated overnight at 4° C. in a solution containing 2M urea, 1M NaCl and 50 mM Tris (pH 7.5) and subsequently centrifuged 15 minutes at 16.000×g. The supernatant was stored at −80° C.\nas §3\nIL-13 was measured by incubation in a wheel coated with a primary antibody specifically dedicated to the recognition of the protein and after rinsing, a second antibody against IL-13, coupled with horse radish peroxydase was used to quantify the amounts of […] in the solution."}, "[4]": {"system": "OVA exposed mice", "test": "Peribronchial eosinophil infiltration (Congo Red), OVA mouse model", "assay_type": "in vivo", "settings": "FIG. 3", "procedure": "as §2\nAfter BAL, the thorax was opened and the left main bronchus was clamped. The left lung was excised and frozen immediately at −80° C. for protein and mRNA extraction. The right lung was infused with 4 ml paraformaldehyde 4%, embedded in paraffin and used for histology. Sections of 5 μm thickness were cut off from paraffin and were stained with haematoxylin-eosin. The extent of peribronchial inflammation was estimated by a score calculated by quantification of peribronchial inflammatory cells, as previously described by Cataldo D D, Tournoy K G, Vermaelen K et al. in Am J Pathol 2002; 161(2):491-498. A value of 0 was adjudged when no inflammation was detectable, a value of 1 when there was occasionally inflammatory cells, a value of 2 when most bronchi were surrounded by a thin layer (1 to 5 cells) of inflammatory cells and a value of 3 when most bronchi were surrounded by a thick layer (>5 cells) of inflammatory cells. Since 5-7 randomly selected tissue sections per mouse were scored, inflammation scores are expressed as a mean value and can be compared between groups. After Congo Red staining, the eosinophilic infiltration in the airway walls was quantified by manual count and reported to the perimeter of epithelial basement membrane defining an eosinophilic inflammatory score."}, "[5]": {"system": "CXCL-1", "test": "CXCL-1 ELISA in lung protein extracts, OVA-induced inflammation model", "assay_type": "in vivo, mouse", "settings": "aerosolized 15 mM, vs placebo-exposed mice, FIG. 12", "procedure": "In ovalbumin (OVA)-induced inflammation model, mice were immunized by intraperitoneal injection of OVA (10 μg) (Sigma Aldrich, Schnelldorf, Germany) and aluminium hydroxyde on days 0 and 7. From days 21 to 25, mice were exposed to inhalation of 1% OVA or PBS (phosphate buffer saline) for 30 minutes. Airway hyperresponsiveness was measured on day 26 before sacrifice. Mice were either exposed to aerosolized hydroxypropyl-beta-cyclodextrin (15 mM) or PBS for […] 6 hours before allergen exposure.\nas §1, with “Score of 0 corresponded to bronchi without inflammation; score 1 to occasional mononuclear cells observed around bronchi, and score 2 to 1 to 5 layer(s) of inflammatory cells around bronchi.” left out"}}}
{"substance": "hydroxypropyl-βcyclodextrin [HP-β-CD]", "values": [{"measurement": "Peribronchial inflammation", "setting": "[1]", "value": "significantly lower"}, {"measurement": "levels of eotaxin in lung protein extracts", "setting": "[2]", "value": "decrease"}, {"measurement": "levels of IL-13 in whole lung protein extracts", "setting": "[3]; 50 mM, FIG. 11", "value": "significantly decreased"}, {"measurement": "IL-13 levels in BAL", "setting": "[3]; FIG. 7b", "value": "decreased"}, {"measurement": "peribronchial eosinophil infiltration", "setting": "[4]; 50 mM", "value": "decrease reached statistical significance"}, {"measurement": "peribronchial eosinophil infiltration", "setting": "[4]; 1 and 7.5 mM", "value": "decrease reached statistical significance"}, {"measurement": "Levels of CXCL-1 in lung protein extracts", "setting": "[5]", "value": "significantly decreased"}]}
